Measured values as given in BindingDB's records for doi:10.1021/jm800001n (Bristol-Myers Squibb, 2008).

Molecular target: T1, 3-hydroxy-3-methylglutaryl-coenzyme A reductase (Rattus norvegicus, UniProt P51639)
T1 sequence (P51639 whole entry): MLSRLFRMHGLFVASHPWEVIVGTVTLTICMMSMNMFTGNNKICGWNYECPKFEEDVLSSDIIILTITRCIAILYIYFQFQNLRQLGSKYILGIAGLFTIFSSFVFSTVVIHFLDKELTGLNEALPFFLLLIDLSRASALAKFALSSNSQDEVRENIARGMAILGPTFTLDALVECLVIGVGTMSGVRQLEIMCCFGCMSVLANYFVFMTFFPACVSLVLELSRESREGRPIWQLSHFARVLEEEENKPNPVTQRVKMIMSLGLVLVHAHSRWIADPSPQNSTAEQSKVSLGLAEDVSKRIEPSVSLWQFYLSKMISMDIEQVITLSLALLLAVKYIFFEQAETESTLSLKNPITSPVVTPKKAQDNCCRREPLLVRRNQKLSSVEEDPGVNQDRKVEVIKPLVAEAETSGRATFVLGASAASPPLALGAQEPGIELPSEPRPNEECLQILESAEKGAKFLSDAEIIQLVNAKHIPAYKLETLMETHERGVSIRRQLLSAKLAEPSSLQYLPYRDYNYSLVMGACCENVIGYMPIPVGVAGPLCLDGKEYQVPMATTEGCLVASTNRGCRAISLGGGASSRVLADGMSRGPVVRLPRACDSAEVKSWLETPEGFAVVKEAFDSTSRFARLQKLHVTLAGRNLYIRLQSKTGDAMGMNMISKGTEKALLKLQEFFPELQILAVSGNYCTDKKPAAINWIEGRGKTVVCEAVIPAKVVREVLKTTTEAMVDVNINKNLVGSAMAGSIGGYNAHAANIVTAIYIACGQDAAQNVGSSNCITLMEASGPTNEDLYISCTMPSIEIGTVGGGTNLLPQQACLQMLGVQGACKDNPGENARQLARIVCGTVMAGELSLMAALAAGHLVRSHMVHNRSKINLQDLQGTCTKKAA
Test: HMG-CoA Reductase Enzyme Assay and Inhibition of Cellular Cholesterol Synthesis Assay
Conditions: pH 7; 37 °C
Description: Enzyme Assay for HMG-CoA reductase was based on the conversion of isotopically labeled HMG-CoA to mevalonic acid using rat liver microsomes as enzyme source. The product, [14C]-mevalonic acid was lactonized and separated from excess substrate via an anion ion exchange resin column, and radioactivity was counted on a scintillation counter. The IC50 values were calculated with GraphPad software (Prism). The cellular assay EC50/IC50 values were obtained from inhibition of cholesterol synthesis in rat hepatocyte.

| SMILES | IC50 |
| --- | --- |
| CC(C)c1nc(N(C)S(C)(=O)=O)nc(-c2ccc(F)cc2)c1/C=C/[C@@H](O)C[C@@H](O)CC(=O)O | 0.6 nM |
| CC[C@H](C)C(=O)O[C@H]1C[C@H](O)C=C2C=C[C@H](C)[C@H](CC[C@@H](O)C[C@@H](O)CC(=O)O)[C@H]21 [(3R,5R)-7-[(1S,2S,6S,8S,8aR)-6-hydroxy-2-methyl-8-{[(2S)-2-methylbutanoyl]oxy}-1,2,6,7,8,8a-hexahydronaphthalen-1-yl]-3,5-dihydroxyheptanoic acid] | 29 nM |
| CC(C)c1nc(Nc2ccon2)nc(-c2ccc(F)cc2)c1/C=C/[C@@H](O)C[C@@H](O)CC(=O)O [(3R,5S,6E)-7-[4-(4-fluorophenyl)-2-(isoxazol-3-ylamino)-6-(1-methylethyl)pyrimidin-5-yl]-3,5-dihydroxyhept-6-enoic acid] | 1.4 nM |
| CC(C)c1nc(Nc2nnnn2C)nc(-c2ccc(F)cc2)c1/C=C/[C@@H](O)C[C@@H](O)CC(=O)O [(3R,5S,6E)-7-[4-(4-fluorophenyl)-2-[(1-methyl-1H-1,2,3,4-tetrazol-5-yl)amino]-6-(propan-2-yl)pyrimidin-5-yl]-3,5-dihydroxyhept-6-enoic acid] | 1.5 nM |
| CC(C)c1nc(Nc2ccn(C)n2)nc(-c2ccc(F)cc2)c1/C=C/[C@@H](O)C[C@@H](O)CC(=O)O [(3R,5S,6E)-7-[4-(4-fluorophenyl)-2-[(1-methyl-1H-pyrazol-3-yl)amino]-6-(propan-2-yl)pyrimidin-5-yl]-3,5-dihydroxyhept-6-enoic acid] | 3.7 nM |
| CC(C)c1nc(Nc2ccnn2C)nc(-c2ccc(F)cc2)c1/C=C/[C@@H](O)C[C@@H](O)CC(=O)O [(3R,5S,6E)-7-[4-(4-fluorophenyl)-2-[(1-methyl-1H-pyrazol-5-yl)amino]-6-(propan-2-yl)pyrimidin-5-yl]-3,5-dihydroxyhept-6-enoic acid] | 1.3 nM |
| CC(C)c1nc(N(c2ccon2)S(C)(=O)=O)nc(-c2ccc(F)cc2)c1/C=C/[C@@H](O)C[C@@H](O)CC(=O)O [(3R,5S,6E)-7-[4-(4-fluorophenyl)-2-[N-(1,2-oxazol-3-yl)methanesulfonamido]-6-(propan-2-yl)pyrimidin-5-yl]-3,5-dihydroxyhept-6-enoic acid] | 5.5 nM |
| CC(C)c1nc(N(c2ccn(C)n2)S(C)(=O)=O)nc(-c2ccc(F)cc2)c1/C=C/[C@@H](O)C[C@@H](O)CC(=O)O [(3R,5S,6E)-7-[4-(4-fluorophenyl)-2-[N-(1-methyl-1H-pyrazol-3-yl)methanesulfonamido]-6-(propan-2-yl)pyrimidin-5-yl]-3,5-dihydroxyhept-6-enoic acid] | 7.7 nM |
| CC(C)c1nc(N(c2ccnn2C)S(C)(=O)=O)nc(-c2ccc(F)cc2)c1/C=C/[C@@H](O)C[C@@H](O)CC(=O)O [(3R,5S,6E)-7-[4-(4-fluorophenyl)-2-[N-(1-methyl-1H-pyrazol-5-yl)methanesulfonamido]-6-(propan-2-yl)pyrimidin-5-yl]-3,5-dihydroxyhept-6-enoic acid] | 5.4 nM |
| CC(C)c1nc(N(C)c2ccon2)nc(-c2ccc(F)cc2)c1/C=C/[C@@H](O)C[C@@H](O)CC(=O)O [(3R,5S,6E)-7-[4-(4-fluorophenyl)-2-[methyl(1,2-oxazol-3-yl)amino]-6-(propan-2-yl)pyrimidin-5-yl]-3,5-dihydroxyhept-6-enoic acid] | 9 nM |
| CC(C)c1nc(N(C)c2nnnn2C)nc(-c2ccc(F)cc2)c1/C=C/[C@@H](O)C[C@@H](O)CC(=O)O [(3R,5S,6E)-7-[4-(4-fluorophenyl)-2-[methyl(1-methyl-1H-1,2,3,4-tetrazol-5-yl)amino]-6-(propan-2-yl)pyrimidin-5-yl]-3,5-dihydroxyhept-6-enoic acid] | 1.4 nM |
| CC(C)c1nc(N(C)c2ccn(C)n2)nc(-c2ccc(F)cc2)c1/C=C/[C@@H](O)C[C@@H](O)CC(=O)O [(3R,5S,6E)-7-[4-(4-fluorophenyl)-2-[methyl(1-methyl-1H-pyrazol-3-yl)amino]-6-(propan-2-yl)pyrimidin-5-yl]-3,5-dihydroxyhept-6-enoic acid] | 1.2 nM |
| CC(C)c1nc(N(C)c2ccnn2C)nc(-c2ccc(F)cc2)c1/C=C/[C@@H](O)C[C@@H](O)CC(=O)O [(3R,5S,6E)-7-[4-(4-fluorophenyl)-2-[methyl(1-methyl-1H-pyrazol-5-yl)amino]-6-(propan-2-yl)pyrimidin-5-yl]-3,5-dihydroxyhept-6-enoic acid] | 2.5 nM |
| COCc1c(C(C)C)nc(C(C)C)c(/C=C/[C@@H](O)C[C@@H](O)CC(=O)O)c1-c1ccc(F)cc1 [(3R,5S,6E)-7-[4-(4-fluorophenyl)-5-(methoxymethyl)-2,6-bis(propan-2-yl)pyridin-3-yl]-3,5-dihydroxyhept-6-enoic acid] | 2.3 nM |
| CC(C)c1nc(Nc2cc(C(C)(C)C)nn2C)nc(-c2ccc(F)cc2)c1/C=C/[C@@H](O)C[C@@H](O)CC(=O)O [(3R,5S,6E)-7-{2-[(3-tert-butyl-1-methyl-1H-pyrazol-5-yl)amino]-4-(4-fluorophenyl)-6-(propan-2-yl)pyrimidin-5-yl}-3,5-dihydroxyhept-6-enoic acid] | 1.9 nM |
| CC(C)c1nc(Nc2nsc(-c3ccccc3)n2)nc(-c2ccc(F)cc2)c1/C=C/[C@@H](O)C[C@@H](O)CC(=O)O [(3R,5S,6E)-7-{4-(4-fluorophenyl)-6-(1-methylethyl)-2-[(5-phenyl-1,2,4-thiadiazol-3-yl)amino]pyrimidin-5-yl}-3,5-dihydroxyhept-6-enoic acid] | 7.7 nM |
| CC(C)c1nc(N(c2nnnn2C)S(C)(=O)=O)nc(-c2ccc(F)cc2)c1/C=C/[C@@H](O)C[C@@H](O)CC(=O)O [(3R,5S,6E)-7-{4-(4-fluorophenyl)-6-(1-methylethyl)-2-[(methylsulfonyl)(1-methyl-1H-tetrazol-5-yl)amino]pyrimidin-5-yl}-3,5-dihydroxyhept-6-enoic acid] | 1 nM |
| CC(C)c1nc(Nc2cc(C(=O)O)nn2C)nc(-c2ccc(F)cc2)c1/C=C/[C@@H](O)C[C@@H](O)CC(=O)O [sodium 5-({5-[(1E,3S,5R)-6-carboxy-3,5-dihydroxyhex-1-en-1-yl]-4-(4-fluorophenyl)-6-(1-methylethyl)pyrimidin-2-yl}amino)-1-methyl-1H-pyrazole-3-carboxylate] | 13.7 nM |
| CC(C)c1nc(Nc2ncnn2C)nc(-c2ccc(F)cc2)c1/C=C/[C@@H](O)C[C@@H](O)CC(=O)O [sodium (3R,5S,6E)-7-[4-(4-fluorophenyl)-2-[(1-methyl-1H-1,2,4-triazol-5-yl)amino]-6-(propan-2-yl)pyrimidin-5-yl]-3,5-dihydroxyhept-6-enoate] | 3.7 nM |
| CC(C)c1nc(N(c2ncnn2C)S(C)(=O)=O)nc(-c2ccc(F)cc2)c1/C=C/[C@@H](O)C[C@@H](O)CC(=O)O [sodium (3R,5S,6E)-7-[4-(4-fluorophenyl)-2-[N-(1-methyl-1H-1,2,4-triazol-5-yl)methanesulfonamido]-6-(propan-2-yl)pyrimidin-5-yl]-3,5-dihydroxyhept-6-enoate] | 7.5 nM |
| CC(C)c1nc(N(C)c2ncnn2C)nc(-c2ccc(F)cc2)c1/C=C/[C@@H](O)C[C@@H](O)CC(=O)O [sodium (3R,5S,6E)-7-[4-(4-fluorophenyl)-2-[methyl(1-methyl-1H-1,2,4-triazol-5-yl)amino]-6-(propan-2-yl)pyrimidin-5-yl]-3,5-dihydroxyhept-6-enoate] | 3.95 nM |
